Assay results as given in publication PMC9062502 (RSC Advances, 2019).

How the values were obtained:
xanthine oxidase = xanthine oxidase (Bos taurus, UniProt P80457); test: Fluorescence-quenching binding to xanthine oxidase; conditions: for Affinity n (number of binding sites per enzyme molecule): double-logarithm formula; for Affinity n (number of binding sites per enzyme molecule) / Affinity K sv (dynamic quenching constant): 25 °C; for Affinity K sv (dynamic quenching constant): xanthine oxidase 1.0 μmol L^−1 in PBS, λex 280 nm, emission 335 nm; for Quenching of xanthine oxidase fluorescence (in words): no binding constant value
[1] = partition coefficient; ref https://pubchem.ncbi.nlm.nih.gov/compound/; cited from earlier work

Sequence of xanthine oxidase (P80457 2-1332): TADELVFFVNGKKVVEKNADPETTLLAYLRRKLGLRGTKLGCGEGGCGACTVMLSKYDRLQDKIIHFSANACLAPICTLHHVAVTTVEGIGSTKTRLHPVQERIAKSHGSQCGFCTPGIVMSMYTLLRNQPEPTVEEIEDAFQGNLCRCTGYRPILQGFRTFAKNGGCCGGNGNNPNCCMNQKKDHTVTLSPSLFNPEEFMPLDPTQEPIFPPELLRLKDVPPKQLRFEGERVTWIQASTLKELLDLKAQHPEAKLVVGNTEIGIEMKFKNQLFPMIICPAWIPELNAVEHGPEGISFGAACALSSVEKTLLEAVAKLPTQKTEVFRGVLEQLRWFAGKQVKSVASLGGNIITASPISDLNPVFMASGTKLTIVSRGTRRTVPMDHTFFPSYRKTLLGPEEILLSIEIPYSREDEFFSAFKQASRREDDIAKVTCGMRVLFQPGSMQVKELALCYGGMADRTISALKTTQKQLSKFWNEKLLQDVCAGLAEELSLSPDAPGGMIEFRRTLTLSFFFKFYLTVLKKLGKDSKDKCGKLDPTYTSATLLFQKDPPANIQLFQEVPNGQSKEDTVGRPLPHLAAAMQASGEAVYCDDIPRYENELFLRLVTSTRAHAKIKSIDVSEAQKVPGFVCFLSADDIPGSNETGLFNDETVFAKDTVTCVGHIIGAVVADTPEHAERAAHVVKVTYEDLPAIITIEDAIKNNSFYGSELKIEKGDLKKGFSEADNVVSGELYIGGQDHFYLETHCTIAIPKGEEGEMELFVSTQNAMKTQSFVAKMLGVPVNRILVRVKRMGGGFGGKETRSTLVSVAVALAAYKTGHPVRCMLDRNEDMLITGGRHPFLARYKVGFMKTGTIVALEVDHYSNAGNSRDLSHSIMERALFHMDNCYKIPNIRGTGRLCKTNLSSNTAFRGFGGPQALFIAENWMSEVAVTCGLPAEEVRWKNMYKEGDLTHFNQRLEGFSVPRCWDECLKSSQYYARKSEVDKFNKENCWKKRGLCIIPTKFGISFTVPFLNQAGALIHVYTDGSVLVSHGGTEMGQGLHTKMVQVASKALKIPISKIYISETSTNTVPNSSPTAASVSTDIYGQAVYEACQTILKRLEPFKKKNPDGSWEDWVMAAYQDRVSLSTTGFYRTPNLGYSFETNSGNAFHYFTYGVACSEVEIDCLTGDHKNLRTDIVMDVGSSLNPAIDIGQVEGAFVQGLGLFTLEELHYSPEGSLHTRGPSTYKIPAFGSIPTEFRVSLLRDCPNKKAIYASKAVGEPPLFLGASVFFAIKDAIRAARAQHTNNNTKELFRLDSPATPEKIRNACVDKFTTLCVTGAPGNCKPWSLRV

| SMILES | Affinity n (number of binding sites per enzyme molecule) (xanthine oxidase) | Affinity K sv (dynamic quenching constant) (xanthine oxidase) | Quenching of xanthine oxidase fluorescence (in words) (xanthine oxidase) | Fold increase of affinity for xanthine oxidase after glycosylation (xanthine oxidase; aglycone named, 3,7-glycosylation of kaempferol, 3-glycosylation of quercetin, 7-glycosylation of naringenin) [times] | Fold higher affinity for xanthine oxidase than the C2=C3 unsaturated counterpart (xanthine oxidase; dihydromyricetin versus myricetin, naringenin versus apigenin) [times] | X log P3 [1] |
| --- | --- | --- | --- | --- | --- | --- |
| O=c1cc(-c2ccc(O)cc2)oc2cc(O)cc(O)c12 [Apigenin] | 0.4524 | 0.0285 10^6 |  |  |  | 1.7 |
| O=c1cc(-c2ccccc2)oc2cc(O)c(O)c(O)c12 [Baicalein] | 1.5312 | 0.1981 10^6 |  |  |  | 1.7 |
| O=C(O)[C@H]1O[C@@H](Oc2cc3oc(-c4ccccc4)cc(=O)c3c(O)c2O)[C@H](O)[C@@H](O)[C@@H]1O [Baicalin] | 1.8782 | 0.3668 10^6 |  |  |  | 1.1 |
| O=c1cc(-c2ccccc2)oc2cc(O)cc(O)c12 [Chrysin] | 0.6025 | 0.0195 10^6 |  |  |  | 2.1 |
| O=c1c(-c2ccc(O)cc2)coc2cc(O)ccc12 [Daidzein] | 1.2554 | 0.0230 10^6 |  |  |  |  |
| O=C1c2c(O)cc(O)cc2O[C@H](c2cc(O)c(O)c(O)c2)[C@H]1O [Dihydromyricetin] | 1.2262 | 0.0470 10^6 |  |  |  | 1.1 |
| Oc1cc(O)c2c(c1)O[C@H](c1ccc(O)c(O)c1)[C@H](O)C2 [EC (2,3-cis), epicatechin] |  |  | not able to quench the fluorescence |  |  |  |
| O=C(O[C@@H]1Cc2c(O)cc(O)cc2O[C@@H]1c1cc(O)c(O)c(O)c1)c1cc(O)c(O)c(O)c1 [EGCG (2,3-cis), (−)-epigallocatechin gallate] | 1.2461 | 0.0226 10^6 |  |  |  |  |
| O=c1c(O)c(-c2ccc(O)c(O)c2)oc2cc(O)ccc12 [Fisetin] | 1.3663 | 0.0729 10^6 |  |  |  | 2.0 |
| O=c1cc(-c2ccccc2)oc2ccccc12 [Flavone] | 1.3695 | 0.0552 10^6 |  |  |  | 3.6 |
| COc1ccc(-c2oc3cc(O)cc(O)c3c(=O)c2O)cc1 [Kaempferide] |  |  |  |  |  | 2.2 |
| C[C@@H]1O[C@@H](Oc2cc(O)c3c(=O)c(O[C@@H]4O[C@@H](C)[C@H](O)[C@@H](O)[C@H]4O)c(-c4ccc(O)cc4)oc3c2)[C@H](O)[C@H](O)[C@H]1O [Kaempferitrin] |  |  |  |  |  | −0.1 |

The next lines start with results.

| Affinity n (number of binding sites per enzyme molecule) (xanthine oxidase) | Affinity K sv (dynamic quenching constant) (xanthine oxidase) | Quenching of xanthine oxidase fluorescence (in words) (xanthine oxidase) | Fold increase of affinity for xanthine oxidase after glycosylation (xanthine oxidase; aglycone named, 3,7-glycosylation of kaempferol, 3-glycosylation of quercetin, 7-glycosylation of naringenin) [times] | Fold higher affinity for xanthine oxidase than the C2=C3 unsaturated counterpart (xanthine oxidase; dihydromyricetin versus myricetin, naringenin versus apigenin) [times] | SMILES | X log P3 [1] |
| --- | --- | --- | --- | --- | --- | --- |
| 0.6866 | 0.0147 10^6 |  |  |  | COc1ccc(-c2coc3cc(O)ccc3c2=O)cc1 [Formononetin] | 2.8 |
|  |  | not able to quench the fluorescence |  |  | Oc1cc(O)c2c(c1)O[C@@H](c1cc(O)c(O)c(O)c1)[C@H](O)C2 [GC (2,3-trans), (−)-gallocatechin] |  |
| 0.9038 | 0.0276 10^6 |  |  |  | O=c1c(O)c(-c2ccccc2)oc2cc(O)cc(O)c12 [Galangin] | 2.3 |
| 1.3911 | 0.0537 10^6 |  |  |  | O=c1c(-c2ccc(O)cc2)coc2cc(O)cc(O)c12 [Genistein] | 2.7 |
| 1.2571 | 0.0989 10^6 |  |  |  | COc1c(O)cc2oc(-c3ccc(O)cc3)cc(=O)c2c1O [Hispidulin] | 1.7 |
| 1.0535 | 0.0225 10^6 |  |  |  | O=c1c(O)c(-c2ccc(O)cc2)oc2cc(O)cc(O)c12 [Kaempferol] | 1.9 |
| 1.3087 | 0.0926 10^6 |  |  |  | O=c1cc(-c2ccc(O)c(O)c2)oc2cc(O)cc(O)c12 [Luteolin] | 1.4 |
| 1.0764 | 0.0294 10^6 |  |  |  | O=c1c(O)c(-c2cc(O)c(O)c(O)c2)oc2cc(O)cc(O)c12 [Myricetin] | 1.2 |
| 1.2510 | 0.0568 10^6 |  | 73.3 | 4676 | O=C1C[C@@H](c2ccc(O)cc2)Oc2cc(O)cc(O)c21 [Naringenin] | 2.4 |
| 1.6838 | 0.0846 10^6 |  |  |  | C[C@@H]1O[C@@H](O[C@H]2[C@H](Oc3cc(O)c4c(c3)O[C@H](c3ccc(O)cc3)CC4=O)O[C@H](CO)[C@@H](O)[C@@H]2O)[C@H](O)[C@H](O)[C@H]1O [Naringin] | −0.5 |
| 2.8371 | 0.9637 10^6 |  |  |  | COc1ccc(-c2cc(=O)c3c(OC)c(OC)c(OC)c(OC)c3o2)cc1OC [Nobiletin] | 3.0 |
| 1.1801 | 0.0290 10^6 |  |  |  | O=c1c(-c2ccc(O)cc2)coc2c([C@@H]3O[C@H](CO)[C@@H](O)[C@H](O)[C@H]3O)c(O)ccc12 [Puerarin] | 0.0 |
| 1.0614 | 0.0477 10^6 |  |  |  | O=c1c(O)c(-c2ccc(O)c(O)c2)oc2cc(O)cc(O)c12 [Quercetin] | 1.5 |
| 1.2904 | 0.0532 10^6 |  |  |  | C[C@@H]1O[C@@H](OC[C@H]2O[C@@H](Oc3c(-c4ccc(O)c(O)c4)oc4cc(O)cc(O)c4c3=O)[C@H](O)[C@@H](O)[C@@H]2O)[C@H](O)[C@H](O)[C@H]1O [Rutin] | −1.3 |
| 1.0022 | 0.1498 10^6 |  |  |  | COc1ccc(-c2cc(=O)c3c(OC)c(OC)c(OC)c(OC)c3o2)cc1 [Tangeretin] | 3.0 |
| 0.6283 | 0.0644 10^6 |  |  |  | COc1c(O)cc2occ(-c3ccc(O)cc3)c(=O)c2c1O [Tectorigenin] | 2.6 |
